Test results as given in patent US8084456B2, “Pyrazine-based tubulin inhibitors” (YM Biosciences Australia Pty Ltd, priority 2002, dated 2011).

Key:
[1] = system: PC3 (Prostate Cancer) cells; experiment: Cellular growth assay (MTT), PC3; assay type: cell-based; details: Homo sapiens, PC-3, 40 hr incubation, read-out: PC3 (inhibition of 50% of cellular growth)
Procedure: (§1) K562 (Chronic Myeloid Leukemia), PC3 (Prostate Cancer), and DU145 (Prostate Cancer) were obtained from the American Type Culture Collection (ATCC). K562 was grown in RPMI, with 10% FBS with Glutamx added. DU145 cells were cultured in DMED, with 10% FBS and Glutamx and MEM non-essential amino acids added. PC3 cells were grown in F12K medium, with 10% FBS and Glutamx and MEM non-essential amino acids added. All cells were grown at 37° C. in 5% CO2.

TelJak3 = TelJak3 (Homo sapiens, UniProt P52333); experiment: Cellular growth assay (MTT), BaF3 TEL/JAK3 cells; assay type: cell-based; details: 40 hr incubation, read-out: TelJak3 (inhibition of 50% of cellular growth)
Sequence of TelJak3 (P52333 with tags, fused parts or gaps): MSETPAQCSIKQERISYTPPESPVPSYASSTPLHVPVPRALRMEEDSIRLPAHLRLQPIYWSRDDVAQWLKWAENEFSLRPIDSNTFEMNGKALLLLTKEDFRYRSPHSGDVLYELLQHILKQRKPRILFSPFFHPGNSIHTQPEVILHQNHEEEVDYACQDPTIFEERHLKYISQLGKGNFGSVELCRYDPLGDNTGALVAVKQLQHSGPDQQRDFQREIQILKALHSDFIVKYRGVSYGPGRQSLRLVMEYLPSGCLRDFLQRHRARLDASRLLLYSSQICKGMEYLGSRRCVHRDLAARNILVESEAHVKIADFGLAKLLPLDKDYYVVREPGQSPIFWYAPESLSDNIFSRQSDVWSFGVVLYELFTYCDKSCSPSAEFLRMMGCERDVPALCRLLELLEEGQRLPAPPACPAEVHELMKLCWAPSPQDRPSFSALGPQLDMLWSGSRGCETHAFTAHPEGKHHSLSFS

[2] = system: K562 (Chronic Myeloid Leukemia) cells; experiment: Cellular growth assay (MTT), K562; assay type: cell-based; details: Homo sapiens, 40 hr incubation, read-out: K562 (inhibition of 50% of cellular growth)
Procedure: as §1

TelJak2 = TelJak2 (Homo sapiens, UniProt O60674); experiment: Cellular growth assay (MTT), BaF3 TEL/JAK2 cells; assay type: cell-based; details: 40 hr incubation, read-out: TelJak2 (inhibition of 50% of cellular growth)
Sequence of TelJak2 (O60674 with tags, fused parts or gaps): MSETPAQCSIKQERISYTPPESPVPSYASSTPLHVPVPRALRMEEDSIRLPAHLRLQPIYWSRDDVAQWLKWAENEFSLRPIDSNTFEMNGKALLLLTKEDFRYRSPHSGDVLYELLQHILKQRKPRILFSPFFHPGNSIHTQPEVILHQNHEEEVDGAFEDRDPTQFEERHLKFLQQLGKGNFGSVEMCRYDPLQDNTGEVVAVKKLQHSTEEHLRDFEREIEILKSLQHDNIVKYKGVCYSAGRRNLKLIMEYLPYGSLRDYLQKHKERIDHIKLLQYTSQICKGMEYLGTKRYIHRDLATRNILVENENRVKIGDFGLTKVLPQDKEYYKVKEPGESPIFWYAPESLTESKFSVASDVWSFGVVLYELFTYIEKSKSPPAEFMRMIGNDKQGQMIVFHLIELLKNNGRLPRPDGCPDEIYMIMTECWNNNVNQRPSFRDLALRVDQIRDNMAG

Tubulin = Tubulin assay (turbidometric microtubule assembly); assay type: biochemical; details: at 50 μM, absorbance at 340 nm, 37° C.
Procedure: Turbidometric assays of microtubule assembly were performed by incubating microtubule protein in cuvettes at 37° C. in a thermostatically controlled spectrophotometer measuring the change in absorbance at 340 nm over time. The microtubule protein was incubated with the each test compound at 0° C. and polymerisation was initiated by addition of 1 mM GTP, prior to heating to 37° C.

[3] = system: DU145 (Prostate Cancer) cells; experiment: Cellular growth assay (MTT), DU145; assay type: cell-based; details: Homo sapiens, DU-145, 40 hr incubation, read-out: DU145 (inhibition of 50% of cellular growth)
Procedure: as §1

| Structure (SMILES) | IC50 [1] | IC50 (TelJak3) | IC50 [2] | IC50 (TelJak2) | Tubulin (inhibition of tubulin polymerisation) (Tubulin) | IC50 [3] |
| --- | --- | --- | --- | --- | --- | --- |
| COc1cc(-c2cncc(NC(CCN3CCN(C)CC3)c3ccccc3)n2)ccc1O (centres unmarked) | ≤ 20 µM | ≤ 20 µM | ≤ 20 µM | ≤ 20 µM | + (inhibited tubulin polymerisation by greater than 50% at 50 μM) | ≤ 20 µM |
| CCCC(Nc1cncc(-c2ccc(O)c(OC)c2)n1)c1cc(F)ccc1F (centres unmarked) | > 20 µM | ≤ 20 µM | ≤ 20 µM | ≤ 20 µM |  | > 20 µM |
| CCC[C@H](Nc1cncc(-c2ccc(O)c(OC)c2)n1)c1cccnc1 | ≤ 20 µM | ≤ 20 µM | ≤ 20 µM | ≤ 20 µM | + (inhibited tubulin polymerisation by greater than 50% at 50 μM) | ≤ 20 µM |
| CCN(CC)CCCC(Nc1cncc(-c2ccc(O)c(OC)c2)n1)c1ccccc1 (centres unmarked) | > 20 µM | ≤ 20 µM | > 20 µM | ≤ 20 µM |  | > 20 µM |
| CCCC(Nc1cncc(-c2ccc(O)c(OC)c2)n1)c1cccc(C(=O)OC)c1 (centres unmarked) | ≤ 20 µM | ≤ 20 µM | ≤ 20 µM | ≤ 20 µM | + (inhibited tubulin polymerisation by greater than 50% at 50 μM) | ≤ 20 µM |
| CCCC(Nc1cncc(-c2ccc(NC(C)=O)c(OC)c2)n1)c1cncc(C)c1 (centres unmarked) | > 20 µM | ≤ 20 µM | ≤ 20 µM | ≤ 20 µM |  | ≤ 20 µM |
| CCCC(Nc1cncc(-c2ccc(O)c(OC)c2)n1)c1cccnc1 (centres unmarked) | ≤ 20 µM | ≤ 20 µM | ≤ 20 µM | ≤ 20 µM | + (inhibited tubulin polymerisation by greater than 50% at 50 μM) | ≤ 20 µM |
| CCCC(Nc1cncc(-c2ccc(O)c(OC)c2)n1)c1cc(C)ccc1C (centres unmarked) | ≤ 20 µM | ≤ 20 µM | ≤ 20 µM | ≤ 20 µM | + (inhibited tubulin polymerisation by greater than 50% at 50 μM) | ≤ 20 µM |
| CCCC(Nc1cncc(-c2ccc(O)c(OC)c2)n1)c1ccc(N(CC)CC)cc1 (centres unmarked) | > 20 µM | ≤ 20 µM | > 20 µM | ≤ 20 µM |  | ≤ 20 µM |
| CCCC(Nc1cncc(-c2ccc(O)c(OC)c2)n1)c1cccc(C(=O)NC(C)C2CC2)c1 (centres unmarked) | > 20 µM | ≤ 20 µM | ≤ 20 µM | ≤ 20 µM |  | > 20 µM |
| CCCC(Nc1cncc(-c2ccc(O)c(OC)c2)n1)c1cccc(C#N)c1 (centres unmarked) | ≤ 20 µM | ≤ 20 µM | ≤ 20 µM | ≤ 20 µM |  | > 20 µM |
| CCCC(Nc1cncc(-c2ccc(O)c(OC)c2)n1)c1cccc(C(=O)NCc2cccnc2)c1 (centres unmarked) | > 20 µM | ≤ 20 µM | ≤ 20 µM | ≤ 20 µM |  | > 20 µM |
| CCC[C@H](Nc1cncc(-c2ccc(NCC)c(OC)c2)n1)c1ccccc1 | ≤ 20 µM | ≤ 20 µM | ≤ 20 µM | ≤ 20 µM |  | > 20 µM |
| CCCC(Nc1cncc(-c2ccc(O)c(OC)c2)n1)c1cccc([C@H](O)OCCOCC)c1 (some centres unmarked) | > 20 µM | ≤ 20 µM | ≤ 20 µM | ≤ 20 µM |  | > 20 µM |
| COc1cc(-c2cncc(NC(CC(C)C)c3ccccc3)n2)ccc1O (centres unmarked) | > 20 µM | ≤ 20 µM | ≤ 20 µM | ≤ 20 µM |  | > 20 µM |
| CCCC(Nc1cncc(-c2ccc(O)c(OCC)c2)n1)c1cncc(C)c1 (centres unmarked) | ≤ 20 µM | ≤ 20 µM | ≤ 20 µM | ≤ 20 µM |  | > 20 µM |
| CCCC(Nc1cncc(-c2ccc(O)c(OC)c2)n1)c1ccc(OC)c(OC)c1 (centres unmarked) | > 20 µM | ≤ 20 µM | ≤ 20 µM | ≤ 20 µM |  | ≤ 20 µM |
| CCCC(Nc1cncc(-c2ccc(O)c(OCC)c2)n1)c1cccc(F)c1 (centres unmarked) | ≤ 20 µM | ≤ 20 µM | ≤ 20 µM | ≤ 20 µM |  | > 20 µM |
| CCCC(Nc1cncc(-c2ccc(N)c(OC)c2)n1)c1ccccc1 (centres unmarked) | > 20 µM | ≤ 20 µM | ≤ 20 µM | ≤ 20 µM |  | > 20 µM |
| CCCC(Nc1cncc(-c2ccc(O)c(OC)c2)n1)c1ccc(Cl)c(F)c1 (centres unmarked) | > 20 µM | ≤ 20 µM | ≤ 20 µM | ≤ 20 µM |  | > 20 µM |
| COc1cc(-c2cncc(NC(CCC3OCCO3)c3cccc(Cl)c3)n2)ccc1O (centres unmarked) | > 20 µM | ≤ 20 µM | ≤ 20 µM | ≤ 20 µM |  | > 20 µM |
| COc1cc(-c2cncc(NC(CCO)c3ccccc3)n2)ccc1O (centres unmarked) | > 20 µM | ≤ 20 µM | > 20 µM | ≤ 20 µM |  | > 20 µM |

| Structure (SMILES) | IC50 [1] | IC50 (TelJak3) | IC50 [2] | IC50 (TelJak2) | Tubulin (inhibition of tubulin polymerisation) (Tubulin) | IC50 [3] |
| --- | --- | --- | --- | --- | --- | --- |
| CCCC(Nc1cncc(-c2ccc(O)c(OC)c2)n1)c1cccc(C(=O)NC)c1 (centres unmarked) | > 20 µM | ≤ 20 µM | ≤ 20 µM | ≤ 20 µM |  | > 20 µM |
| COc1cc(-c2cncc(NC(C)c3ccccn3)n2)ccc1O (centres unmarked) | > 20 µM | ≤ 20 µM | > 20 µM | ≤ 20 µM |  | > 20 µM |
| CCCC(Nc1cncc(-c2ccc3c(c2)OCO3)n1)c1cccnc1 (centres unmarked) | > 20 µM | ≤ 20 µM | ≤ 20 µM | ≤ 20 µM |  | > 20 µM |
| CCCC(Nc1cncc(-c2ccc(NS(C)(=O)=O)c(OC)c2)n1)c1ccc(F)cc1 (centres unmarked) | ≤ 20 µM | ≤ 20 µM | ≤ 20 µM | ≤ 20 µM |  | > 20 µM |
| CCCC(Nc1cncc(-c2ccc(O)c(OC)c2)n1)c1ccc(SC)cc1 (centres unmarked) | > 20 µM | ≤ 20 µM | ≤ 20 µM | ≤ 20 µM |  | > 20 µM |
| COc1cc(-c2cncc(NC(CCCCN3CCOCC3)c3ccccc3)n2)ccc1O (centres unmarked) | > 20 µM | ≤ 20 µM | > 20 µM | ≤ 20 µM |  | > 20 µM |
| CCCC(Nc1cncc(-c2ccc(O)c(OCC)c2)n1)c1cccnc1 (centres unmarked) | ≤ 20 µM | ≤ 20 µM | ≤ 20 µM | ≤ 20 µM |  | > 20 µM |
| CCCC(Nc1cncc(-c2ccc(O)c(OC)c2)n1)c1cccc(NC(C)=O)c1 (centres unmarked) | > 20 µM | ≤ 20 µM | ≤ 20 µM | ≤ 20 µM |  | > 20 µM |
| CCC[C@H](Nc1cncc(-c2ccc(NC(C)=O)c(OC)c2)n1)c1ccccc1 | > 20 µM | ≤ 20 µM |  | ≤ 20 µM |  |  |
| CCCC(Nc1cncc(-c2ccc(O)c(OC)c2)n1)c1cccc(OC(F)(F)F)c1 (centres unmarked) | > 20 µM | ≤ 20 µM | ≤ 20 µM | ≤ 20 µM |  | > 20 µM |
| CCCC(Nc1cncc(-c2ccc(O)c(OC)c2)n1)c1ccc(O)cc1 (centres unmarked) | > 20 µM | ≤ 20 µM | > 20 µM | ≤ 20 µM |  | > 20 µM |
| CCCC(Nc1cncc(-c2cc(OC)c(O)c(OC)c2)n1)c1ccccc1 (centres unmarked) | > 20 µM | ≤ 20 µM | > 20 µM | ≤ 20 µM |  | > 20 µM |
| CCCC(Nc1cncc(-c2ccc(O)c(OC)c2)n1)c1ccncc1 (centres unmarked) |  | ≤ 20 µM | ≤ 20 µM | ≤ 20 µM |  | > 20 µM |
| CCCC(Nc1cncc(-c2ccc(O)c(OC)c2)n1)c1cccc(C(=O)NCCN(C)C)c1 (centres unmarked) | ≤ 20 µM | ≤ 20 µM | ≤ 20 µM | ≤ 20 µM |  | > 20 µM |
| CCCC(Nc1cncc(-c2ccc(NC(C)=O)c(OC)c2)n1)c1cccnc1 (centres unmarked) | ≤ 20 µM | ≤ 20 µM | ≤ 20 µM | ≤ 20 µM |  | > 20 µM |
| CCCC(Nc1nc(-c2ccc(O)c(OC)c2)cnc1N)c1cccc(F)c1 (centres unmarked) | > 20 µM | ≤ 20 µM | ≤ 20 µM | ≤ 20 µM |  | > 20 µM |
| CCN(CC)CCCCC(Nc1cncc(-c2ccc(O)c(OC)c2)n1)c1ccccc1 (centres unmarked) | > 20 µM | ≤ 20 µM | > 20 µM | ≤ 20 µM |  | ≤ 20 µM |
| CCCC(Nc1cncc(-c2cccc(OC)c2)n1)c1ccccc1 (centres unmarked) | > 20 µM | ≤ 20 µM | ≤ 20 µM | ≤ 20 µM |  | > 20 µM |
| CCCC(=O)Nc1ccc(-c2cncc(NC(CCC)c3cccnc3)n2)cc1OC (centres unmarked) | ≤ 20 µM | ≤ 20 µM | ≤ 20 µM | ≤ 20 µM |  |  |
| CCCC(Nc1cncc(-c2ccc(O)c(OC)c2)n1)c1cccc(F)c1F (centres unmarked) | > 20 µM | ≤ 20 µM | ≤ 20 µM | ≤ 20 µM |  | > 20 µM |
| CCCC(Nc1cncc(-c2cc(OC)c(OC)c(OC)c2)n1)c1ccccc1 (centres unmarked) | > 20 µM | ≤ 20 µM | ≤ 20 µM | ≤ 20 µM |  | ≤ 20 µM |
| CCCOC(=O)c1cccc(C(CCC)Nc2cncc(-c3ccc(O)c(OC)c3)n2)c1 (centres unmarked) | ≤ 20 µM | ≤ 20 µM | ≤ 20 µM | ≤ 20 µM |  | > 20 µM |
